In patent US9730937B2, “RAF kinase modulator compounds and methods of use thereof” (AMBIT BIOSCIENCES CORPORATION, priority 2008, dated 2017):
Where a name gives a salt, the structure may show the parent alone. Read-outs that look alike come from different tables or passages of the source.

What was measured:
wild type BRAF kinase = wild type BRAF kinase (Homo sapiens (Human), UniProt P15056); details: read-out: BRAF WT Kd, class symbols
RAF kinases = RAF kinases (Homo sapiens (Human), UniProt P04049); details: read-out: RAF1 Kd, class symbols
RAF kinases, sequence (P04049 whole entry): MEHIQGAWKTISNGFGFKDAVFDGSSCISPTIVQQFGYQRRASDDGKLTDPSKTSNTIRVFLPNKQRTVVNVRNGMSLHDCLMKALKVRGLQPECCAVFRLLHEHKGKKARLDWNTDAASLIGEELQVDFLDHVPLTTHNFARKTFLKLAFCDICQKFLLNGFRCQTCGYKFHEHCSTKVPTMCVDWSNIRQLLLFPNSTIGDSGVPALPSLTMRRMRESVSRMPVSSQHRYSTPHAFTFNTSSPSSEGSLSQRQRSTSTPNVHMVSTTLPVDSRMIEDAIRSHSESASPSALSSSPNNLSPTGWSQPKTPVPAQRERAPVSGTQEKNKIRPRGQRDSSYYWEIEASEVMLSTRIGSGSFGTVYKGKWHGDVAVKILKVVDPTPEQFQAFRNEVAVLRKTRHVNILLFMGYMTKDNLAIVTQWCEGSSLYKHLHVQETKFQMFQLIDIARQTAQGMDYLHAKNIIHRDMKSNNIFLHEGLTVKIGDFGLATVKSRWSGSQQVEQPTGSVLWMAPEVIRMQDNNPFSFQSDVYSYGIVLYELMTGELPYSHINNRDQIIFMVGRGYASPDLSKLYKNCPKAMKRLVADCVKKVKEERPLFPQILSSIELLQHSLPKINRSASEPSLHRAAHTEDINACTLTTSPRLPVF
Procedure: The liganded beads were blocked with excess biotin and washed with blocking buffer (SeaBlock (Pierce), 1% BSA, 0.05% Tween 20, 1 mM DTT) to remove unbound ligand and to reduce non-specific binding. […] Test compounds were prepared as 100× stocks in DMSO and rapidly diluted into the aqueous environment. DMSO was added to control assays lacking a test compound. Primary screen interactions were performed in polypropylene 384-well plates in a final volume of 34 μL, while Kd determinations were performed in polystyrene 96-well plates in a final volume of 135 μL. […] The kinase concentration in the eluates was measured by quantitative PCR. Each kinase was tested individually against each compound. KdS were determined using eleven serial threefold dilutions. A selectivity score, which is a quantitative measure of selectivity of a compound against a panel of enzymes, may be calculated for a compound by dividing the number of enzymes for which a compound meets a set criteria, (for example, a binding constant of 100 nM or less), by the total number of enzymes tested. […] (Note, for those compounds tested in a larger kinase panel, as indicated by an asterisk (*) next to the S35 score, the divisor is 321 (i.e. the larger panel contains 321 distinct kinases, excluding mutant variants.)).

[1] = tested on: panel of 290 distinct kinases (321 in the larger panel), excluding mutant variants; details: kinase selectivity score, class symbols
mutant BRAF kinase = mutant BRAF kinase (Homo sapiens (Human), UniProt P15056, V600E); details: read-out: BRAF V600E Kd, class symbols
mutant BRAF kinase, sequence (P15056 whole entry V600E): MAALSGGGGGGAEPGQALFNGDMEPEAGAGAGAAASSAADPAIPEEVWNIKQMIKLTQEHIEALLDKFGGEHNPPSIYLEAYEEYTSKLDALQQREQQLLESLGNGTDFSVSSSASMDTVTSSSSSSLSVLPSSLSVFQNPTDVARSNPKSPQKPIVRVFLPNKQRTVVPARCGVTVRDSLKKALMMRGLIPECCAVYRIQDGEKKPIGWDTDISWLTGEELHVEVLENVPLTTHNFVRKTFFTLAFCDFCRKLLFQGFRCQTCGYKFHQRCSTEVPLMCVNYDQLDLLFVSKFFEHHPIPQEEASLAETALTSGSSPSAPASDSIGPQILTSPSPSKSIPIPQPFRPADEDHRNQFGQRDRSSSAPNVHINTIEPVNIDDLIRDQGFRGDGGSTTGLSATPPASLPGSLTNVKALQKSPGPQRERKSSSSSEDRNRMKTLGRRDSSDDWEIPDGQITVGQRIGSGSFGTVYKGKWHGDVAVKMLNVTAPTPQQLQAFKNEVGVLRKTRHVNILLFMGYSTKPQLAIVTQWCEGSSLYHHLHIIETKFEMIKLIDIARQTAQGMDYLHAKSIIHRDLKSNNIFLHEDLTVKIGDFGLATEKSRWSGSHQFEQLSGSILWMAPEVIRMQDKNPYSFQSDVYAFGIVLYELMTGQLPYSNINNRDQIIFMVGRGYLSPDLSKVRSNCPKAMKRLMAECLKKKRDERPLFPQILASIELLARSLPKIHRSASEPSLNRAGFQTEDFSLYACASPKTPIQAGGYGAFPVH

[2] = value marked * (larger kinase panel)

wild type BRAF kinase, sequence (P15056 whole entry): as the sequence (P15056 whole entry V600E) above, with E600V counted along it

COCCOc1cc2ncnc(Oc3cccc(NC(=O)Nc4cc(C(=O)N5CCOCC5)cc(C(F)(F)F)c4)c3)c2cc1OC [Ex 205, 1-(3-(6-methoxy-7-(2-methoxyethoxy)quinazolin-4-yloxy)phenyl)-3-(3-(morpholine-4-carbonyl)-5-(trifluoromethyl)phenyl)urea]
Kd (wild type BRAF kinase): > 1 µM
Kd (RAF kinases): > 1 µM
S35 [1, 2]: C* (0.20 < C ≦ 0.40)

COc1cc2ncnc(Sc3cccc(NC(=O)Nc4cc(C5(C(F)(F)F)CCC5)no4)c3)c2cc1OC [Ex 156, 1-(3-(6,7-dimethoxyquinazolin-4-ylthio)phenyl)-3-(3-(1-(trifluoromethyl)cyclobutyl)isoxazol-5-yl)urea]
Kd (wild type BRAF kinase): > 1 µM
Kd (RAF kinases): > 1 µM
S35 [1, 2]: C* (0.20 < C ≦ 0.40)

COc1cc2ncnc(Sc3cccc(NC(=O)Nc4cc(C(C)(C)C)on4)c3)c2cc1OCCN1CCCCC1 [Ex 65, 1-(5-tert-butylisoxazol-3-yl)-3-(3-(7-methoxy-6-(2-(piperidin-1-yl)ethoxy)quinazolin-4-ylthio)phenyl)urea]
Kd (wild type BRAF kinase): > 1 µM
Kd (mutant BRAF kinase): < 0.25 µM
S35 ([1]; 290 distinct kinases): C (0.20 < C ≦ 0.40)

CCOc1cc2ncnc(Oc3cccc(NC(=O)Nc4cc(C(C)(C)C)on4)c3)c2cc1OC [Ex 6, 1-(5-tert-butylisoxazol-3-yl)-3-[3-(7-ethoxy-6-methoxyquinazolin-4-yloxy)phenyl]urea hydrochloride]
Kd (wild type BRAF kinase): > 1 µM
Kd (mutant BRAF kinase): < 0.25 µM
S35 ([1]; 290 distinct kinases): D (D > 0.40)

CCOC(=O)Cn1nc(C(C)(C)C)cc1NC(=O)Nc1cccc(Oc2ncnc3cc(OC)c(OC)cc23)c1 [Ex 166, ethyl 2-(3-tert-butyl-5-{3-[3-(6,7-dimethoxyquinazolin-4-yloxy)phenyl]ureido}-1H-pyrazol-1-yl)acetate]
Kd (wild type BRAF kinase): > 1 µM
Kd (RAF kinases): > 1 µM
S35 [1, 2]: C* (0.20 < C ≦ 0.40)

COCCOc1ccc2ncnc(Oc3cccc(NC(=O)Nc4cc(C(C)(C)C)on4)c3)c2c1 [Ex 40, 1-(5-tert-butylisoxazol-3-yl)-3-(3-(6-(2-methoxyethoxy)quinazolin-4-yloxy)phenyl)urea]
Kd (wild type BRAF kinase): > 1 µM
Kd (mutant BRAF kinase): < 0.25 µM
S35 ([1]; 290 distinct kinases): C (0.20 < C ≦ 0.40)

CCOc1cc2ncnc(Sc3cccc(NC(=O)Nc4cc(C(C)(C)C)on4)c3)c2cc1OCC [Ex 51, 1-(5-tert-butylisoxazol-3-yl)-3-[3-(6,7-diethoxyquinazolin-4-ylthio)phenyl]urea]
Kd (wild type BRAF kinase): > 1 µM
Kd (RAF kinases): > 1 µM
S35 ([1]; 290 distinct kinases): C (0.20 < C ≦ 0.40)

COc1cc2ncnc(Oc3cccc(NC(=O)Nc4cc(C(C)(C)C)nn4C)c3)c2cc1OC [Ex 158, 1-(3-tert-butyl-1-methyl-1H-pyrazol-5-yl)-3-(3-(6,7-dimethoxyquinazolin-4-yloxy)phenyl)urea]
Kd (wild type BRAF kinase): > 1 µM
Kd (mutant BRAF kinase): < 0.25 µM
S35 [1, 2]: C* (0.20 < C ≦ 0.40)

COc1cc2ncnc(Oc3cccc(NC(=O)Nc4cc(CN5CCOCC5)cc(C(F)(F)F)c4)c3)c2cc1OC [Ex 151, 1-(3-(6,7-dimethoxyquinazolin-4-yloxy)phenyl)-3-(3-(morpholinomethyl)-5-(trifluoromethyl)phenyl)urea]
Kd (wild type BRAF kinase): > 1 µM
Kd (mutant BRAF kinase): < 0.25 µM
S35 [1, 2]: C* (0.20 < C ≦ 0.40)

CCOc1cc2ncnc(Oc3cccc(NC(=O)Nc4cc(C(C)(C)C)on4)c3)c2cc1OCC [Ex 13, 1-(5-tert-butylisoxazol-3-yl)-3-[3-(6,7-diethoxyquinazolin-4-yloxy)phenyl]urea hydrochloride]
Kd (wild type BRAF kinase): > 1 µM
Kd (RAF kinases): > 1 µM
S35 ([1]; 290 distinct kinases): C (0.20 < C ≦ 0.40)

COc1cc2ncnc(Sc3cccc(NC(=O)Nc4cc(C(F)(F)F)nn4-c4ccc(F)cc4)c3)c2cc1OC [Ex 198, 1-[3-(6,7-dimethoxyquinazolin-4-ylthio)phenyl]-3-[1-(4-fluorophenyl)-3-(trifluoromethyl)-1H-pyrazol-5-yl]urea]
Kd (wild type BRAF kinase): > 1 µM
Kd (RAF kinases): > 1 µM
S35 [1, 2]: C* (0.20 < C ≦ 0.40)

COc1cc2ncnc(Oc3cccc(NC(=O)Nc4cc(C(C)(C)C)on4)c3)c2cc1O[C@H]1CCN(C(=O)OC(C)(C)C)C1 [Ex 108, (S)-tert-butyl 3-(4-(3-(3-(5-tert-butylisoxazole-3-yl)ureido)phenoxy)-7-methoxyquinazolin-6-yloxy)pyrrolidine-1-carboxylate]
Kd (wild type BRAF kinase): > 1 µM
Kd (RAF kinases): > 1 µM
S35 ([1]; 290 distinct kinases): C (0.20 < C ≦ 0.40)

COc1cc2c(Oc3cccc(NC(=O)Nc4cc(C(C)(C)C)on4)c3)ncnc2cc1OCCCN1CCN(CCO)CC1 [Ex 30, 1-(5-tert-butylisoxazol-3-yl)-3-(3-(7-(3-(4-(2-hydroxyethyl)piperazin-1-yl)propoxy)-6-methoxyquinazolin-4-yloxy)phenyl)urea]
Kd (wild type BRAF kinase): < 0.25 µM
Kd (mutant BRAF kinase): < 0.25 µM
S35 ([1]; 290 distinct kinases): D (D > 0.40)

COc1cc2ncnc(Sc3cccc(NC(=O)Nc4ccc(C(C)(C)C)cc4)c3)c2cc1OC [Ex 174, 1-(4-tert-butylphenyl)-3-(3-(6,7-dimethoxyquinazolin-4-ylthio)phenyl)urea]
Kd (wild type BRAF kinase): > 1 µM
S35 ([1]; 290 distinct kinases): C (0.20 < C ≦ 0.40)

COc1cc2ncnc(Oc3cc(NC(=O)Nc4cc(C(C)(C)C)on4)ccc3F)c2cc1OC [Ex 9, 1-(5-tert-butylisoxazol-3-yl)-3-(3-(6,7-dimethoxyquinazolin-4-yloxy)-4-fluorophenyl)urea]
Kd (wild type BRAF kinase): > 1 µM
Kd (mutant BRAF kinase): < 0.25 µM
S35 ([1]; 290 distinct kinases): D (D > 0.40)

COc1cc2c(Sc3cccc(NC(=O)Nc4cc(C(C)(C)C)on4)c3)ncnc2cc1OCCN1CCC(CO)CC1 [Ex 86, 1-(5-tert-butylisoxazol-3-yl)-3-(3-(7-(2-(4-(hydroxymethyl)piperidin-1-yl)ethoxy)-6-methoxyquinazolin-4-ylthio)phenyl)urea]
Kd (wild type BRAF kinase): > 1 µM
S35 ([1]; 290 distinct kinases): C (0.20 < C ≦ 0.40)

COc1cc2ncnc(Oc3cccc(NC(=O)Nc4cc(C(F)(F)F)ccc4Cl)c3)c2cc1OC [Ex 142, 1-(2-chloro-5-(trifluoromethyl)phenyl)-3-(3-(6,7-dimethoxyquinazolin-4-yloxy)phenyl)urea]
Kd (wild type BRAF kinase): > 1 µM
S35 ([1]; 290 distinct kinases): B (0.10 < B ≦ 0.20)

COc1cc2ncnc(Oc3cccc(NC(=O)Nc4cc(Cl)cc(C(F)(F)F)c4)c3)c2cc1OC [Ex 140, 1-(3-chloro-5-(trifluoromethyl)phenyl)-3-(3-(6,7-dimethoxyquinazolin-4-yloxy)phenyl)urea]
Kd (wild type BRAF kinase): > 1 µM
S35 ([1]; 290 distinct kinases): B (0.10 < B ≦ 0.20)

COc1cc2ncnc(Oc3cccc(NC(=O)Nc4cc(C5CCCC5)no4)c3)c2cc1OC [Ex 163, 1-(3-cyclopentylisoxazol-5-yl)-3-(3-(6,7-dimethoxyquinazolin-4-yloxy)phenyl)urea]
Kd (wild type BRAF kinase): > 1 µM
S35 [1, 2]: C* (0.20 < C ≦ 0.40)

COc1cc2ncnc(Oc3cccc(NC(=O)Nc4nccc(C(F)(F)F)n4)c3)c2cc1OC [Ex 143, 1-(3-(6,7-dimethoxyquinazolin-4-yloxy)phenyl)-3-(4-(trifluoromethyl)pyrimidin-2-yl)urea]
Kd (wild type BRAF kinase): > 1 µM
S35 ([1]; 290 distinct kinases): A (A ≦ 0.10)

COc1cc2ncnc(Oc3cccc(NC(=O)Nc4cc(C(C)(C)C)on4)c3)c2cc1OC [Ex 1, 1-(5-tert-butylisoxazol-3-yl)-3-(3-(6,7-dimethoxyquinazolin-4-yloxy)phenyl)urea]
Kd (wild type BRAF kinase): > 1 µM
Kd (mutant BRAF kinase): < 0.25 µM
S35 ([1]; 290 distinct kinases): C (0.20 < C ≦ 0.40)

CCOc1cc2c(Oc3cccc(NC(=O)Nc4cc(C(C)(C)C)on4)c3)ncnc2cc1OC [Ex 11, 1-(5-tert-butylisoxazol-3-yl)-3-(3-(6-ethoxy-7-methoxyquinazolin-4-yloxy)phenyl)urea]
Kd (wild type BRAF kinase): > 1 µM
Kd (mutant BRAF kinase): < 0.25 µM
S35 ([1]; 290 distinct kinases): C (0.20 < C ≦ 0.40)
